Assay results from patent publication US9221862B2, “Erythromycin ethylsuccinate crystalline hydrate, preparation and uses thereof” (priority 2011, dated 2015).

Assay: Hygroscopicity test according to CP2005 (RH 70%, 25° C.)
Assay type: physicochemical
Conditions: sampling time 48 h, 5 grams of sample
Description: The erythromycin ethylsuccinate crystalline hydrate according to the present invention was stable during storage. The above sample was sealed in vials and subjected to accelerated stability test at 30° C. using HPLC (C18 reverse phase column, 4.6×250 mm, 5 μm), mobile phase: 10 mmol/L sodium dodecyl sulfate solution containing 0.1% triethylamine (pH adjusted to 3.4 with phosphoric acid)—acetonitrile (55:45), detection wavelength was 205 nm, and the flow rate is 1.0 ml/min, and the change of relevant substances and content was detected. […] According to CP2005, 5 grams of the sample of the present invention was, at 25° C., placed in a relative humidity of 70% in the test for hygroscopicity. It is surprising that erythromycin ethylsuccinate hydrate leads to less hygroscopic weight gain. […] In addition, the deliquescence of anhydride makes it necessary to isolate from air during processing to prevent adhesions, while the hydrate has good sliding properties, thereby improving the operability of the formulation.

Substance	hygroscopic weight gain %, compared to 0 h [%]
Erythromycin Ethylsuccinate 0.5 H2O Hydrate	0.2
Erythromycin Ethylsuccinate 0.25 H2O Hydrate	0.59
